Test results reported in US20200375929A1, “METHODS AND COMPOSITIONS FOR THE TREATMENT OF DISEASES ASSOCIATED WITH CANCER, INFLAMMATION, OR IMMUNE RESPONSE” (Washington University, priority 2017, published 2020).
“Also recorded” adds a separate entry of the source.

Assays:
Ikb-ζ = test: IL17A-mediated Ikb-ζ induction in HaCat cells (western blot); type: cell-based, human; details: DI 12 h at non-toxic concentrations, IL17A 100 ng/ml up to 4 h
human CD14+ monocytes = test: Cytokine production in LPS-stimulated human monocytes (ELISA); type: cell-based; details: DI 12 h, LPS 24 h
Protocol: Cytokines in cell supernatants were analyzed using DuoSet® ELISA kits according to manufacturer protocol (R&D Systems). The supernatants from BMDMs were diluted 1:4, from human blood monocytes 1:3.
Blood from healthy donors was acquired from LRS chambers supplied by the Mississippi Valley Regional Blood Center. Peripheral blood mononuclear cells (PBMCs) from buffy coats were recovered from the Ficoll interface after a 400 g centrifugation for 30 min. Monocytes were isolated by adherence on a cell culture dish for 1 h at 37° C. and 5% C02 in RPMI containing 1% Human Serum Albumin (Albutein, Grifols, Spain). After extensive washes to allow removal of non-adherent cells, monocytes (>95% purity) were harvested, counted and 5×10^5 cells were plated per well in 24-well plates. The cells were treated with DI (125 μM if not stated otherwise) for 12 h and stimulated with LPS (100 ng/mL) for 1 h or as indicated. In some experiments cells were treated with DI in presence of EtGSH (1 mM, Santa Cruz).

Nfkbiz mRNA = test: Nfkbiz (Ikb-ζ) mRNA expression in BMDMs (qPCR); type: cell-based, mouse; details: DI 12 h, then LPS
Protocol: BMDM were prepared from 6- to 12-week-old mice as described 1 and cultured in RMPI-1640 medium supplemented with 10% fetal bovine serum (FBS), 2 mM L-glutamine, and 100 U/mL penicillin-streptomycin and mouse recombinant M-CSF ([…], Peprotech). For experiments, cells were seeded at concentration 10^6 cells/mL in tissue culture plates of various formats. The cells were treated with DI (250 μM (unless stated otherwise), cat #592498, Sigma), DMF (50 μM (unless stated otherwise), cat #242926, Sigma), 3-(ethoxycarbonyl)but-3-enoic acid (3MI, 5 μM, Aris Pharmaceuticals Inc.), 4-ethoxy-2-methylene-4-oxobutanoic acid (MI, Aris Pharmaceuticals Inc.) for 12 h and activated with lipopolysaccharide (LPS; 100 ng/mL; E. coli 0111:B4, Sigma) for 1 h or as indicated. In some experiments cells were stimulated with combination of LPS (20 ng/mL) and IFN-γ (50 ng/mL; Peprotech). In some experiments cells were treated with α-tocopherol (AT, 10 μM; Sigma), MitoTEMPO (MT, 500 μM; Sigma), N-acetylcysteine (NAC, 1 mM, Sigma), ethylester of GSH (EtGSH; 1 mM, Santa Cruz) or buthionene sulfoximine (BSO, 500 μM, Sigma) alone or in combination with DI for 12 h. […]
RNA from cultured cells was isolated using a Total RNA I kit (OMEGA). […] Threshold cycle (CT) values for each sample were determined by automated threshold analysis. […]

STAT3 = STAT3 activation in IL17A-stimulated HaCat cells (western blot); type: cell-based, human; details: DI 12 h
BMDMs / BV2 cells = test: Intracellular ROS by flow cytometry; type: cell-based, mouse; details: DI 250 μM
Protocol: For ROS measurements, cells were treated with DI (250 μM), loaded with 10 μM CM-H2DCFDA (Invitrogen) at RT for 30 min in Hank's balanced salt solution (HBSS). After incubation, cell were rinsed with warm HBSS, harvested and directly analyzed. Mean fluorescent intensity (MFI) of living cells is shown. For Nfkbiz 3′UTR reporter analysis GFP signal was determined in live cells. For analysis of cell viability cells were stained with propidium iodide (1 μg/mL) and percentage of negative cells was plotted. Cells were acquired on CantoII or LSRII flow cytometers (Becton Dickinson), and data were analyzed with FlowJo v.9.5.2 software (Tree Star). For gating strategy see e.g., FIG. 25.

BMDMs = test: Glutathione (GSH) measurement in BMDMs; type: cell-based, mouse; details: DI 250 μM
Protocol: Total GSH concentration in cells was determined by GSH/GSSH Ratio Detection Assay Kit (Abeam) according to manufacturer protocol. Briefly, 106 BMDMs were lysed in 100 μL of 0.5% NP-40 in PBS, pH 6. Samples were deproteinized using trichloroacetic acid and neutralized by addition of 1M NaHCO3 to achieve pH 4-6. Collected extracts were diluted with supplied assay buffer and directly used for GSH measurement.

SMILES: C=C(CC(=O)OC)C(=O)OC [DI, dimethyl itaconate]
- IL17A-mediated Ikb-ζ induction (Ikb-ζ): almost completely inhibited
- LPS-induced cytokine production (human CD14+ monocytes): inhibition of cytokine production
- Ikb-ζ (Nfkbiz) mRNA level (Nfkbiz mRNA): only moderate effect; also recorded: not changed
- STAT3 activation (STAT3): effective to inhibit STAT3 activation
- intracellular ROS production (BMDMs / BV2 cells): increased intracellular ROS; also recorded: increase in ROS generation
- GSH/GSSG ratio (BMDMs): substantial drop
- cellular GSH (BMDMs): substantial drop in cellular GSH; also recorded: substantial drop of cellular GSH concentration
